Data set [1] is classed as in vivo, human. As to conditions: paclitaxel 100 mg/m^2 IV over 3 h, cycle 1; patients taking protease inhibitors.
Data set [2] concerns HIV-associated Kaposi's sarcoma. The data set is described as follows: Objective response, progression-free survival and survival on paclitaxel. It is filed as in vivo, human.
For data set [3] the following is noted: 107 male patients, paclitaxel 100 mg/m^2 intravenously over 3 hours every 2 weeks, 77% received protease inhibitors; cited from earlier work.
For data set [4] the following is noted: cited from earlier work.
The mark [5] stands for this setting: 20 evaluable patients, no prior paclitaxel, 100 mg/m^2 IV every 14 days.

Turning to `CC(=O)O[C@H]1C(=O)[C@@]2(C)[C@H]([C@H](OC(=O)c3ccccc3)[C@]3(O)C[C@H](OC(=O)[C@H](O)[C@@H](NC(=O)c4ccccc4)c4ccccc4)C(C)=C1C3(C)C)[C@]1(OC(C)=O)CO[C@@H]1C[C@@H]2O` [Paclitaxel], the “duration spent at a paclitaxel concentration > 0.05 μM” value in data set [1] is on record as 19.0 (3.0–27.8) hr. Also, the “treatment-related infection of grade 3 or higher, patients” value (20 patients, paclitaxel as first line therapy) is on record as 15%. In addition, the “Infection Grade 3, patients no. (%)” value (PI (n=15)) was 3 (20%). For the same molecule, under “human, in vivo”, the “Abdominal cramps Grade 3, patients no. (%)” value was 1 (7%); the “Anemia Grade 3, patients no. (%)” value is reported as 2 (13%); the “Anemia Grade 4, patients no. (%)” value was 1 (7%); the “Cardiac toxicity Grade 4, patients no. (%)” value is 1 (5%). For the same molecule, where the note is “human, in vivo”, the “Eye irritation Grade 3, patients no. (%)” value is on record as 1 (7%); the “Fatigue Grade 3, patients no. (%)” value is 2 (13%); the “GU toxicity Grade 3, patients no. (%)” value is given as 1 (7%); the “Granulocytopenia Grade 3, patients no. (%)” value is 3 (20%). In addition, for the setting “human, in vivo”, the “Ileus Grade 4, patients no. (%)” value is 1 (7%); the “Leukopenia Grade 4, patients no. (%)” value is 1 (20%); the “Liver toxicity Grade 3, patients no. (%)” value is recorded as 1 (7%); the “Liver toxicity Grade 4, patients no. (%)” value is recorded as 1 (7%). Moreover, where the note is “human, in vivo”, the “Metabolic toxicity Grade 3, patients no. (%)” value is 1 (7%); the “Metabolic toxicity Grade 4, patients no. (%)” value is given as 1 (7%); the “Neuro-motor toxicity Grade 3, patients no. (%)” value was 1 (7%); the “Pulmonary toxicity Grade 3, patients no. (%)” value is given as 1 (7%). For the same molecule, for the setting “human, in vivo”, the “Pulmonary toxicity Grade 4, patients no. (%)” value is listed as 1 (20%); the “Skin toxicity Grade 3, patients no. (%)” value is 1 (20%); the “Thrombocytopenia Grade 4, patients no. (%)” value was 1 (7%); the “WORST DEGREE of toxicity Grade 3, patients no. (%)” value was 7 (47%). In addition, under “human, in vivo”, the “treatment-related anemia of grade 3 or higher, patients” value turned out to be 15% and the “treatment-related granulocytopenia of grade 3 or higher, patients” value worked out at 40%. In data set [2] (setting [5]), the “best response: partial response, patients” value is on record as 30%; the “best response: progressive disease, patients” value was 10%; the “best response: stable disease (SD), patients” value worked out at 50%. Further, the “objective response, patients” value in data set [2] (20 patients assessable for response) came out at 30%. In addition, the “three year survival rate” value in data set [2] (20 patients, no prior paclitaxel) amounted to 67%. Besides, the “median progression free survival” value in data set [2] (20 patients, no prior paclitaxel, 100 mg/m^2 IV every 14 days) is 7.8 months. Also, in data set [2] (20 patients, no prior paclitaxel, median follow-up of 50 months in the 13 surviving patients), the median overall survival result is “had not been reached”. Besides, the “differences in the incidence or severity of toxicity, patients receiving protease inhibitors compared to those who did not” value in data set [3] is reported as “No differences”.

Regarding `O=P1(N(CCCl)CCCl)NCCCO1` (centres unmarked) [cyclophosphamide], the “clearance reduced compared to historical controls” value in data set [4] (29 patients receiving CHOP chemotherapy with HAART) is on record as 1.5 fold.

Regarding `COc1cccc2c1C(=O)c1c(O)c3c(c(O)c1C2=O)C[C@@](O)(C(=O)CO)C[C@@H]3O[C@H]1C[C@H](N)[C@H](O)[C@H](C)O1` [doxorubicin], in data set [4] (human, in vivo), the effects on clearance result is reported as “No significant effects”.

The record behind these values is article PMC3112249 (Cancer chemotherapy and pharmacology, 2011).
